# Results reported in patent US9776979B2, “EBI2 modulators” (Sanford-Burnham Medical Research Institute, priority 2013, dated 2017).
# Target: EBI2 (Homo sapiens, UniProt P32249)
# Assay: Cell-based luminescent assay (EBI2 modulation)
# Conditions: not given
# Method: Cell-Based Luminescent Assay
# To assess EBI2 modulation, the compounds described herein were assayed in the following cell-based luminescent assay:
# 1) Plated 600 cells/well in 4 uL of assay media into columns 1-48 of a 1536-well assay plate, using a liquid dispenser.
# 2) Centrifuged plates at 1000 rpm for 1 minute and covered with lids.
# 3) Incubated overnight at 37° C., 100% relative humidity, 5% CO2.
# 1) Centrifuged compound plates containing compounds described herein at 500 rpm for 1 minute.
# 2) Added compounds into assay plate col 5-48 to final concentration 4-5 uM. Added matching amount of DMSO to positive and negative control wells in columns 1-4.
# 3) Dispensed 2 ul/well of assay media to columns 1-2 for the positive control wells.
# 4) Added 2 ul/well of 400 nM 7a,25-OHC (final assay concentration=80 nM) in assay media to columns 3-48 for the negative control and test compound wells.
# 5) Centrifuged plates at 1000 rpm for 1 minute and re-lid plates.
# 6) Incubated plates at 37° C., 100% relative humidity, 5% CO2 for 60 minutes.
# 7) Following 60 minute incubation, delivered 2.5 uL of Detection Reagent solution to each assay plate (Columns 1-48) using a liquid handler.
# 8) Centrifuged plates at 2000 rpm for 2 minutes and re-lid plates.
# 9) Incubated plates for 60 minutes at 25 degrees in the dark.
# 10) Read plates using the Viewlux, Envision or other suitable plate reader using a luminescence detection.
# The experimental values were normalized by the difference between values from neutral and stimulator control wells in each plate. Then normalized data was corrected to remove systematic plate patterns due to artifacts such as dispensing tip issues etc.
# Sequence of EBI2 (P32249 whole entry): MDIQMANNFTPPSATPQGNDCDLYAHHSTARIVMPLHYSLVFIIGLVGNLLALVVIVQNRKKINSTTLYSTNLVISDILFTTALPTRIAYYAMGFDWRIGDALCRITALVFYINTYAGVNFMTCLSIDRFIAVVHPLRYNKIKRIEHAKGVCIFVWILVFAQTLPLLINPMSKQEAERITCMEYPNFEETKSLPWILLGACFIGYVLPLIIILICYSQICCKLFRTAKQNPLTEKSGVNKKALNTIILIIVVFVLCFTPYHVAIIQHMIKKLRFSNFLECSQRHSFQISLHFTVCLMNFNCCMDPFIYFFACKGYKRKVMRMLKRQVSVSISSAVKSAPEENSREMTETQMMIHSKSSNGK
row,Compound,IC50
1,"O=C(/C=C/c1ccc(Br)cc1)N1CCC(Nc2ccccc2)CC1 [Compound C13, (2E)-3-(4-bromophenyl)-1-[4-(phenylamino)piperidyl]prop-2-en-1-one]",< 100 nM
2,"O=C(/C=C/c1ccc(Br)cc1)N1CCC(Nc2cc(F)cc(F)c2)CC1 [Compound C15, (2E)-1-{4-[(3,5-difluorophenyl)amino]piperidyl}-3-(4-bromophenyl)prop-2-en-1-one]",< 100 nM

# Same assay, conditions: cell-based luminescence; 7a,25-OHC final assay concentration 80 nM; 60 minutes incubation; read-out: IC50
row,Compound,IC50
1,4-{[4-fluoro-2-(trifluoromethyl)phenyl]methyl}piperazinyl 5-(trifluoromethyl)indol-2-yl ketone [Compound C418],100 to 500 nM
2,4-{[4-fluoro-3-(trifluoromethyl)phenyl]methyl}piperazinyl 5-(trifluoromethyl)indol-2-yl ketone [Compound C415],100 to 500 nM
3,4-{[(4-bromophenyl)sulfonyl]amino}piperidyl 5-chloroindol-2-yl ketone [Compound C306],< 100 nM
4,5-bromoindol-2-yl 4-[(4-chlorophenyl)carbonyl]piperazinyl ketone [Compound C85],< 100 nM
5,5-bromoindol-2-yl 4-[(4-chlorophenyl)methyl]piperazinyl ketone [Compound C303],< 100 nM
6,5-chloroindol-2-yl 4-[(4-(3-pyridyl)phenyl)carbonyl]piperazinyl ketone [Compound C254],< 100 nM
7,5-chloroindol-2-yl 4-{[4-(4-chlorophenyl)phenyl]sulfonyl}piperazinyl ketone [Compound C172],500 to 5000 nM
8,5-methylindol-2-yl 4-(3-pyridylmethyl)piperazinyl ketone [Compound C458],100 to 500 nM
9,5-methylindol-2-yl 4-(phenylethyl)piperazinyl ketone [Compound C148],< 100 nM
10,5-methylindol-2-yl 4-benzylpiperazinyl ketone [Compound C376],< 100 nM
11,6-bromoindol-2-yl 4-[(4-chlorophenyl)carbonyl]piperazinyl ketone [Compound C239],< 100 nM
12,6-bromoindol-2-yl 4-[(4-chlorophenyl)methyl]piperazinyl ketone [Compound C471],100 to 500 nM
13,6-fluoroindol-2-yl 4-[(4-fluorophenyl)carbonyl]piperazinyl ketone [Compound C425],100 to 500 nM
14,"O=C(/C=C/c1ccc(Br)cc1)N1CCN(C(=O)c2ccc(Cl)cc2)CC1 [Compound C1, (E)-3-(4-bromophenyl)-1-(4-(4-chlorobenzoyl)piperazin-1-yl) prop-2-en-1-one]",< 100 nM
15,"O=C(/C=C/c1ccc(Br)cc1)N1CCN(C(=O)c2ccc(P(=O)(O)O)cc2)CC1 [Compound C3, (E)-(4-(4-(3-(4-bromophenyl)acryloyl)piperazine-1-carbonyl)phenyl)phosphonic acid]",< 100 nM
16,"Cc1ccc(C(=O)N2CCN(C(=O)/C=C/c3ccc(Br)cc3)CC2)cc1 [Compound C4, (2E)-3-(4-bromophenyl)-1-{4-[(4-methylphenyl)carbonyl]piperazinyl} prop-2-en-1-one]",< 100 nM
17,"O=C(/C=C/c1ccc(Cl)c(Cl)c1)N1CCN(C(c2ccccc2)c2ccccc2)CC1 [Compound C5, (2E)-3-(3,4-dichlorophenyl)-1-[4-(diphenylmethyl)piperazinyl] prop-2-en-1-one]",< 100 nM
18,"O=C(/C=C/c1ccc(Cl)c(Cl)c1)N1CCN(C(=O)c2ccc(C(F)(F)F)cc2)CC1 [Compound C6, (2E)-3-(3,4-dichlorophenyl)-1-(4-{[4-(trifluoromethyl)phenyl]carbonyl}piperazinyl) prop-2-en-1-one]",< 100 nM
19,"COc1ccc(C(=O)N2CCN(C(=O)C#Cc3ccc(Cl)cc3)CC2)cc1 [Compound C7, 3-(4-chlorophenyl)-1-{4-[(4-methoxyphenyl)carbonyl]piperazinyl}prop-2-yn-1-one]",< 100 nM
20,"COc1ccc(C(=O)N2CCN(C(=O)C#Cc3ccc(C)cc3)CC2)cc1 [Compound C8, 1-{4-[(4-methoxyphenyl)carbonyl]piperazinyl}-3-(4-methylphenyl)prop-2-yn-1-one]",< 100 nM

row,Compound,IC50
1,"COc1ccc(C(=O)N2CCN(C(=O)C#Cc3ccc(C(F)(F)F)cc3)CC2)cc1 [Compound C9, 1-{4-[(4-methoxyphenyl)carbonyl]piperazinyl}-3-[4-(trifluoromethyl)phenyl]prop-2-yn-1-one]",< 100 nM
2,"COc1ccc(C(=O)N2CCN(C(=O)C#Cc3ccc(Br)cc3)CC2)cc1 [Compound C10, 3-(4-bromophenyl)-1-{4-[(4-methoxyphenyl)carbonyl]piperazinyl}prop-2-yn-1-one]",< 100 nM
3,"COc1ccc(C(=O)N2CCN(C(=O)C=Cc3ccc(Cl)c(Cl)c3)CC2)cc1 [Compound C11, 3-(3,4-dichlorophenyl)-1-{4-[(4-methoxyphenyl)carbonyl]piperazinyl}prop-2-en-1-one]",< 100 nM
4,"COc1ccc(C(=O)N2CCN(C(=O)C#Cc3ccc(Cl)c(Cl)c3)CC2)cc1 [Compound C12, 3-(3,4-dichlorophenyl)-1-{4-[(4-methoxyphenyl)carbonyl]piperazinyl}prop-2-yn-1-one]",< 100 nM
5,"O=C(/C=C/c1ccc(Br)cc1)N1CCN(C(=O)c2ccccc2)CC1 [Compound C14, (2E)-3-(4-bromophenyl)-1-[4-(phenylcarbonyl)piperazinyl]prop-2-en-1-one]",< 100 nM
6,"O=C(C#Cc1ccc(Cl)cc1)N1CCN(C(=O)c2ccc(Cl)cc2)CC1 [Compound C16, 3-(4-chlorophenyl)-1-{4-[(4-chlorophenyl)carbonyl]piperazinyl}prop-2-yn-1-one]",< 100 nM
7,"COc1ccc(/C=C/C(=O)N2CCN(C(c3ccccc3)c3ccccc3)CC2)cc1 [Compound C17, (2E)-1-[4-(diphenylmethyl)piperazinyl]-3-(4-methoxyphenyl)prop-2-en-1-one]",< 100 nM
8,"O=C(C#Cc1cccc(Cl)c1Cl)N1CCN(C(=O)c2ccc(F)cc2)CC1 [Compound C18, 3-(2,3-dichlorophenyl)-1-{4-[(4-fluorophenyl)carbonyl]piperazinyl}prop-2-yn-1-one]",< 100 nM
9,"O=C(/C=C/c1ccc(Cl)c(Cl)c1)N1CCN(C(=O)c2ccc(F)cc2)CC1 [Compound C20, (2E)-3-(3,4-dichlorophenyl)-1-{4-[(4-fluorophenyl)carbonyl]piperazinyl}prop-2-en-1-one]",< 100 nM
10,"CCOc1ccc(/C=C/C(=O)N2CCN(C(c3ccccc3)c3ccccc3)CC2)cc1 [Compound C21, (2E)-1-[4-(diphenylmethyl)piperazinyl]-3-(4-ethoxyphenyl)prop-2-en-1-one]",< 100 nM
11,"O=C(/C=C/c1ccc(F)cc1)N1CCN(S(=O)(=O)C2=Cc3ccccc3CC2)CC1 [Compound C22, (2E)-1-[4-(2-3,4-dihydronaphthylsulfonyl)piperazinyl]-3-(4-fluorophenyl)prop-2-en-1-one]",< 100 nM
12,"O=C(/C=C/c1ccc(Cl)c(Cl)c1)N1CCN(C(=O)c2ccc(Cl)cc2)CC1 [Compound C23, (2E)-3-(3,4-dichlorophenyl)-1-{4-[(4-chlorophenyl)carbonyl]piperazinyl}prop-2-en-1-one]",< 100 nM
13,"O=C(C#Cc1ccc(Cl)cc1)N1CCN(C(=O)c2ccc(F)cc2)CC1 [Compound C28, 3-(4-chlorophenyl)-1-{4-[(4-fluorophenyl)carbonyl]piperazinyl}prop-2-yn-1-one]",< 100 nM
14,"O=C(/C=C/c1ccc(C(F)(F)F)cc1)N1CCN(C(c2ccccc2)c2ccccc2)CC1 [Compound C29, (2E)-1-[4-(diphenylmethyl)piperazinyl]-3-[4-(trifluoromethyl)phenyl]prop-2-en-1-one]",< 100 nM
15,"O=C(/C=C/c1ccc(Br)cc1)N1CCN(Cc2cc(F)cc(F)c2)CC1 [Compound C31, (2E)-1-{4-[(3,5-difluorophenyl)methyl]piperazinyl}-3-(4-bromophenyl)prop-2-en-1-one]",< 100 nM
16,"Cc1cc(CN2CCN(C(=O)/C=C/c3ccc(Br)cc3)CC2)ccc1F [Compound C32, (2E)-3-(4-bromophenyl)-1-{4-[(4-fluoro-3-methylphenyl)methyl]piperazinyl}prop-2-en-1-one]",< 100 nM
17,"Cc1ccc(C#CC(=O)N2CCN(C(=O)c3ccc(Cl)cc3)CC2)cc1 [Compound C33, 1-{4-[(4-chlorophenyl)carbonyl]piperazinyl}-3-(4-methylphenyl)prop-2-yn-1-one]",< 100 nM
18,"O=C(C#Cc1cccc(Cl)c1)N1CCN(C(=O)c2ccc(Cl)cc2)CC1 [Compound C34, 3-(3-chlorophenyl)-1-{4-[(4-chlorophenyl)carbonyl]piperazinyl}prop-2-yn-1-one]",< 100 nM
19,"O=C(C#Cc1cccc(Cl)c1)N1CCN(C(=O)c2ccc(F)cc2)CC1 [Compound C35, 3-(3-chlorophenyl)-1-{4-[(4-fluorophenyl)carbonyl]piperazinyl}prop-2-yn-1-one]",< 100 nM
20,"O=C(/C=C/c1ccc(Br)cc1)N1CCN(S(=O)(=O)c2ccc(Br)cc2)CC1 [Compound C37, (2E)-3-(4-bromophenyl)-1-{4-[(4-bromophenyl)sulfonyl]piperazinyl}prop-2-en-1-one]",< 100 nM
